{"source": "patent US8344113B2", "about": "“Diagnostic tumor markers, drug screening for tumorigenesis inhibition, and compositions and methods for treatment of cancer” (Minerva Biotechnologies Corporation, priority 2000, dated 2013)", "key": {"T47D cells [1]": {"test_system": "T47D cells", "experiment": "Cell proliferation assay, MUC1 tumor cells treated with drug candidates", "type": "cell-based, human", "conditions": "for Selective inhibition of proliferation of MUC1-expressing tumor cells over control cells: T47D versus K293, 48 hours; for Cell growth (percent cell growth over 48 hours): T47D cells", "description": "(§1) T47D cells, mammary carcinoma cells known to overexpress MUC1, were grown in the wells of an ELISA plate along with K293 cells, human embryonic kidney cells which will serve as the negative control. 100 μl cells in growth media were added to the wells of an ELISA plate and the cells were allowed to adhere overnight. The number of cells in each well on the plate were then counted and recorded. 1 μl of a drug candidate in DMSO was then added to each well of both the T47D cells and the K293 cells. 1 μl DMSO alone was added to control wells. Each well was repeated in triplet. The cells were allowed to grow for 48 hours, the normal doubling time for these cell lines. The number of cells in each well was again counted and recorded. The percent cell growth over this 48-hour period was calculated, and the percent cell growth for wells containing a drug candidate versus DMSO were compared. […] Cell growth in the presence of Etomoxir was […] for T47D cells and 94% for control cells (K293); Cell growth in the presence of L-alpha-methyl-DOPA was 20% for T47D cells and 110% for control cells (K293); Cell growth in the presence of Fusaric acid was 27.7% for T47D cells, and 106.7% for control cells (K293); Cell growth in the absence of any drug (but with an equivalent amount of DMSO added) was 91.3% for T47D cells, and 106.2% for control cells (K293)."}, "[2]": {"target": "T1, MGFR portion of the MUC1 receptor and its activating ligand(s) (Homo sapiens, UniProt P15941, R1131P)", "T1 construct": "made in house; host or cells: chemical synthesis (synthetic peptide)", "T1 sequence (P15941 with tags, fused parts or gaps R1131P)": "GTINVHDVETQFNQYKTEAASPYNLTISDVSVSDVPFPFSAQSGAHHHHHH", "experiment": "Colloid-based color-change drug screening assay (His-PSMGFR colloids plus T47D cell lysate)", "type": "binding", "conditions": "final drug concentration approximately 100 μM", "description": "In a typical example, 1.5 ml of commercially available gold colloid (Auro Dye by Amersham) were pelleted by centrifugation in a microfuge on high for 10 minutes. The pellet was resuspended in 100 μL of the storage buffer (sodium citrate and tween-20). 100 μL of a dimethyl formamide (DMF) solution containing thiols. Following a 3-hour incubation in the thiol solution, the colloids were pelleted and the supernatant discarded. They were then heat cycled in 100 μL of 400 μM tri-ethylene glycol-terminated thiol in DMF for 2 minutes at 55° C., 2 minutes at 37° C., 1 minute at 55° C., 2 minutes at 37° C., then room temperature for 10 minutes. Heat cycling results in the elimination of any species that are not in the lowest energy confirmation, resulting in a stable, close-packed, self-assembled monolayer. Heat cycling can be carried out with any of a wide variety of self-assembled monolayer-forming species. The colloids were then pelleted and 100 μL 100 mM NaCl phosphate buffer were added. The colloids were then diluted 1:1 with 180 μM NiSO4 in the colloid storage buffer.\nThiols used in coating colloids typically were derived from solutions containing about 40 μM nitrilo tri-acetic acid (NTA)-thiol, and other thiols such as methyl-terminated thiol (HS—(CH2)15 CH3), 40% tri-ethylene glycol-terminated thiol, HS(CH2)11[…], (formula) and 50% poly(ethynylphenyl) thiol (C16H10S).\nColloid aggregation can be sensitively detected by monitoring color change of colloid particles which are initially disperse in suspension. Aggregation results in a color change to blue. No auxiliary signaling entity is necessary. In drug screening, aggregation (or lack thereof) is observed in the presence of candidate drugs.\nThe following is an example of a working drug screening assay to identify anti-cancer agents. In this example, a histidine-tagged peptide derived from the portion of the MUC1 receptor that remains attached to the cell surface after receptor cleavage (His-PSMGFR) was attached to NTA-nickel-SAM-coated gold colloids. The peptide-presenting colloids were incubated with lysates/supernatants from MUC1 presenting cells that were shown herein to contain ligands that cause dimerization or multimerization of that portion of the MUC1 receptor. This ligand-induced multimerization of the MGFR portion of the receptor causes the attached colloids to be drawn close together, which causes a change in the color of the colloid solution from pink to blue. Drugs that interfere with the binding of activating ligands to the MGFR portion of the receptor cause the solution to remain pink.\nNegative control wells contained colloids bound with a random sequence histidine-tagged peptide in place of the MUC1 peptide. […] The well containing colloids that presented the PSMGFR peptide plus T47D cell lysates (Well A) changed color from pink to blue, indicating the presence of a multimerizing ligand. Wells that contained a random sequence peptide (RGD) in place of the PSMGFR peptide (Well B) remained pink. Wells that contained phosphate buffer in place of cell lysate also remained pink (Wells C and D).\nT47D cells were trypsinized from a T25 flask, pelleted, resuspended in phosphate buffer, and lysed by sonication to release the ligand into solution. NTA-SAM-coated colloids were bound with the His-PSMGFR peptide:\n200 μl NTA-SAM-coated colloids were incubated with 20 μl 100 μM peptide in phosphate buffer for 15 minutes, pelleted to remove unbound peptide, and resuspended in phosphate buffer. […]"}, "T47D cells [3]": {"test_system": "T47D cells", "experiment": "Modulation of the inhibitory effect of Etomoxir on cell proliferation by added PSMGFR", "type": "cell-based, human", "description": "The following experiment was performed in triplicate. T47D cells were grown to approximately 30% confluency. […] Then, a synthetic peptide (PSMGFR) was added to the cell growth media under normal cell growth conditions."}, "K293 cells": {"test_system": "K293 cells", "experiment": "Cell proliferation assay, negative control cells treated with drug candidates", "type": "cell-based, human", "description": "as §1"}, "PSMGFR peptide": {"target": "T2, PSMGFR peptide (Homo sapiens, UniProt P15941, R1131P)", "T2 construct": "made in house; host or cells: chemical synthesis (synthetic peptide)", "T2 sequence (P15941 with tags, fused parts or gaps R1131P)": "T1 sequence (P15941 with tags, fused parts or gaps R1131P)", "experiment": "Co-elution of drugs with bead-immobilized His-PSMGFR peptide (HPLC / TLC)", "type": "binding", "conditions": "eluates from NTA-nickel beads analyzed by TLC", "description": "The His-PSMGFR peptide was attached to NTA-nickel agarose beads then separately incubated with each of the drug candidates. 100 μl beads were bound to saturation with 1 mg peptide, rinsed to remove unbound peptide, and incubated with 25 μl 2.7 mg/ml drug candidate in DMSO for one hour in 5 ml phosphate buffer. Unbound drugs were washed away with phosphate buffer, and the peptide was eluted from the beads with PBS, 250 mM imidazole. If the drug candidate bound to the peptide, it would co-elute with the peptide in the imidazole solution. Peptide-drug complexes were then separated by HPLC. HPLC elution peaks from the complex were compared to the elution peaks from the drug, injected alone, and the PSMGFR peptide alone.\nIn a similar experiment, eluates from the beads were analyzed by TLC (thin layer chromatography). Two drugs, calcimycin and NS1619 which could be tracked by TLC, because they fluoresced under UV light, were tested. NTA-nickel bead-immobilized peptides were incubated with the drugs as described above, rinsed and eluted from the beads, then rotoevaporated to remove the aqueous buffer. The solid was then resuspended in ethylacetate, 5% methanol and spotted on TLC plates then run in the same organic solvent. […] Calcimycin, gave a clear blue spot under 250 nm UV light and ran at a less polar position (as expected) than the peptide itself. […]"}, "[4]": {"test_system": "MUC1 receptor fragments (self-aggregation)", "experiment": "Colloid color-change self-aggregation assay of MUC1-derived peptides", "type": "binding, human", "conditions": "peptide on NTA-Ni colloids", "description": "Histidine-tagged peptides were synthesized with the sequences shown in table 1 (the various regions of MUC1). The lyophilized peptides were dissolved in DMSO to give a final concentration of 5 mM. A stock solution of each peptide was made by dissolving 4 μl 5 mM DMSO stock in 196 μl Phosphate-Buffered-Saline (PBS) for a resulting concentration of 100 μM. 20 μl of each 100 μM peptide solution was added to 100 μl colloids presenting NTA-Ni to capture the histidine tag of the peptides. The colloids were incubated with the histidine-tagged peptides at room temperature for 10 minutes to allow binding of the histidine-tags to the NTA-Ni on the surface of the colloids. 20 μl aliquots of each peptides species on colloids was then mixed with 20 μl of every other peptide species and with 60 μl of phosphate buffer pH 7.4. The color change of the colloid solutions was recorded after 15 minutes, see FIG. 2. Row A contains the His-PSIBR (primary sequence interchain binding region) peptide; Row B contains the His-TR peptide; Row C contains the His-RM2 peptide; Row D contains the His-PSMGFR peptide. Column 1 contains the His-PSIBR peptide; Column 2 contains the His-TR peptide; Column 3 contains the His-RM2 peptide; and Column 4 contains the His-PSMGFR peptide. […] During this period, the set of colloids incubated with the His-PSIBR peptide changed color from pink to blue. Only the well of Row A, Column 1, which is the cross section of PSIBR with itself, turned from pink to blue within the first 10 minutes.\nThe colloid sets were centrifuged to form a pellet and were resuspended in phosphate buffer. […] Since there was only one peptide species on the colloids, the binding interaction must be the PSIBR peptide binding to itself. The other sets of colloids bound to peptides were assayed for their interaction with one another by mixing 15 μl of one colloid type with 15 μl of a second colloid type and 70 μl phosphate buffer.\nThe peptide was attached to colloid particles presenting NTA thiols, as in other experiments described herein. […]"}}, "note": "No end group written: not given here.", "data": [{"molecule": "CCOC(=O)[C@@]1(CCCCCCOc2ccc(Cl)cc2)CO1", "note": "[Etomoxir]", "values": [{"measurement": "Selective inhibition of proliferation of MUC1-expressing tumor cells over control cells", "setting": "T47D cells [1]", "value": "selectively inhibited proliferation of the MUC1-expressing tumor cells over K293 negative control cells"}, {"measurement": "Interruption of the interaction of MGFR with its ligand(s) (colloid solution stays pink)", "setting": "[2]", "value": "interrupt the interaction of MGFR with its ligand(s)"}, {"measurement": "Cell proliferation in the presence of drug", "setting": "T47D cells [3]; approx. 100 micromolar", "value": "arrested"}, {"measurement": "Cell growth (percent cell growth over 48 hours)", "setting": "K293 cells", "value": 94, "unit": "%"}]}, {"molecule": "CCCCc1ccc(C(=O)O)nc1", "note": "[Fusaric acid]", "values": [{"measurement": "Cell growth (percent cell growth over 48 hours)", "setting": "T47D cells [1]", "value": 27.7, "unit": "%"}, {"measurement": "Cell growth (percent cell growth over 48 hours)", "setting": "K293 cells", "value": 106.7, "unit": "%"}]}, {"molecule": "C[C@](N)(Cc1ccc(O)c(O)c1)C(=O)O", "note": "[L-alpha-methyl-DOPA]", "values": [{"measurement": "Cell growth (percent cell growth over 48 hours)", "setting": "T47D cells [1]", "value": 20, "unit": "%"}, {"measurement": "Selective inhibition of proliferation of MUC1-expressing tumor cells over control cells", "setting": "T47D cells [1]", "value": "selectively inhibited proliferation of the MUC1-expressing tumor cells over K293 negative control cells"}, {"measurement": "Interruption of the interaction of MGFR with its ligand(s) (colloid solution stays pink)", "setting": "[2]", "value": "interrupt the interaction of MGFR with its ligand(s)"}, {"measurement": "Cell growth (percent cell growth over 48 hours)", "setting": "K293 cells", "value": 110, "unit": "%"}]}, {"molecule": "O=c1[nH]c2cc(C(F)(F)F)ccc2n1-c1cc(C(F)(F)F)ccc1O", "note": "[NS1619]", "values": [{"measurement": "Interruption of the interaction of MGFR with its ligand(s) (colloid solution stays pink)", "setting": "[2]", "value": "interrupt the interaction of MGFR with its ligand(s)"}, {"measurement": "Direct binding to PSMGFR peptide (co-elution, TLC)", "setting": "PSMGFR peptide", "value": "co-eluted with the PSMGFR peptide"}]}, {"molecule": "CCCC[C@@]1(C2CCCC2)Cc2cc(OCC(=O)O)c(Cl)c(Cl)c2C1=O", "note": "[butylindazone]", "values": [{"measurement": "Interruption of the interaction of MGFR with its ligand(s) (colloid solution stays pink)", "setting": "[2]", "value": "interrupt the interaction of MGFR with its ligand(s)"}]}, {"molecule": "CNc1ccc2oc(C[C@H]3O[C@@]4(CC[C@H]3C)O[C@H]([C@H](C)C(=O)c3ccc[nH]3)[C@H](C)C[C@H]4C)nc2c1C(=O)O", "note": "[calcimycin]", "values": [{"measurement": "Interruption of the interaction of MGFR with its ligand(s) (colloid solution stays pink)", "setting": "[2]", "value": "interrupt the interaction of MGFR with its ligand(s)"}, {"measurement": "Direct binding to PSMGFR peptide (co-elution, TLC)", "setting": "PSMGFR peptide", "value": "co-eluted with the PSMGFR peptide"}]}, {"molecule": "ESMGFR: Histidine-tagged Extended Sequence of MUC1 Growth Factor Receptor, SEQ ID NO: 3 (VQLTLAFREGTINVHDVETQFNQYKTEAASPYNLTISDVSVSDVPFPFHHHHHH; “Extended Sequence of the MUC1 Growth Factor Receptor” (ESMGFR))", "values": [{"measurement": "Self-aggregation of colloid-immobilized peptide (color change pink to blue)", "setting": "[4]", "value": "self-aggregated"}]}, {"molecule": "His-PSMGFR: Histidine-tagged PSMGFR peptide, SEQ ID NO: 2 (GTINVHDVETQFNQYKTEAASPYNLTISDVSVSDVPFPFSAQSGAHHHHHH; His-PSMGFR peptides)", "values": [{"measurement": "Self-aggregation of colloid-immobilized peptide (color change pink to blue)", "setting": "[4]", "value": "completely free of self-aggregation"}]}, {"molecule": "PSIBR: Primary Sequence of the Interchain Binding Region; tested histidine-tagged, SEQ ID NO: 4 (GFLGLSNIKFRPGSVVVQLTLAFRE; not fully specified (N-terminus); also: tested histidine-tagged, tag position not given here)", "values": [{"measurement": "Self-aggregation of colloid-immobilized peptide (color change pink to blue)", "setting": "[4]", "value": "self-aggregates in a high affinity interaction"}]}, {"molecule": "PSMGFR: Primary Sequence of the MUC1 Growth Factor Receptor, SEQ ID NO: 7 (GTINVHDVETQFNQYKTEAASPYNLTISDVSVSDVPFPFSAQSGA; Primary Sequence of the MUC1 Growth Factor Receptor (PSMGFR))", "values": [{"measurement": "Cell proliferation after adding peptide to Etomoxir-treated cells", "setting": "T47D cells [3]; Etomoxir approx. 100 micromolar present", "value": "increased cell proliferation"}]}]}
